System: tobacco leaf
Assay: Tobacco leaf infiltration tests, macroscopic symptoms under white light
Format: in vivo
Conditions: 50 μl, 8 days after infiltration
Description: Various tobacco leaf infiltration tests were carried out with 50 μl of solution as follows: Eight days after infiltration, macroscopic symptoms were observed under white light and under UV light (wavelength=312 nm). In the figures, the numbers correspond to the spot of infiltration of the test of the same number.

In the case of O=C(O)c1ccccc1O [Salicylic acid, salicylic acid], the “necrosis in infiltrated foliar tissues” value (2 mM, white light (Test 7, positive control)) is reported as “causes necrosis”.
In the case of CC(N)CC(=O)O (stereo not drawn) [BABA, β-aminobutyric acid], the “chlorosis or necrosis at the infiltrated sites” value (10 mM, white light (Test 6)) is reported as “do not induce chlorosis or necrosis”.

— patent publication US9788552B2, “Use of a natural grape marc extract in order to stimulate the natural defenses of plants” (CENTRE NATIONAL DE LA RECHERCHE SCIENTIFIQUE—CNRS, priority 2010, dated 2017)
